The text below walks through data of patent US20240293558A1, “KRAS INHIBITOR CONJUGATES” (Erasca, Inc., priority 2021, published 2024).

The structures appear in SMILES notation. Where two headings read alike, the source gives them in different places.

For assay [1], the target named is T1, KRAS (WT) (Homo sapiens, UniProt P01116).
T1 construct: Biotinylated KRAS protein amino acids 1-169 (produced at Erasca); made in house
As to the kind of experiment: In-vitro RAS-RAF binding assay (RRB), HTRF/FRET. The format is biochemical. The settings on record: read-out: Inhibition of RAS-RAF Binding (in-vitro) KRAS (WT) IC50. In a few lines: (§1)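 Biotinylated KRAS 1-169 (streptavidin-terbium donor, 30 nM) and GST-cRAF RBD (anti-GST d2 acceptor, 30 nM) in HEPES pH 7.5, NaCl, MgCl2, DTT buffer. After compound incubation, SOS1 catalytic domain plus GTPgS drive 60 min nucleotide exchange. HTRF FRET read at equilibrium, in duplicate.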
(In general: Time-resolved FRET reads energy transfer from a long-lived donor to a nearby acceptor.)

Assay [2] concerns the target T2, KRAS G12D (Homo sapiens, UniProt P01116, G12D). Briefly: In-vitro RAS-RAF binding assay (RRB), HTRF/FRET. Format: biochemical. Further details: Biotinylated KRAS protein amino acids 1-169 (produced at Erasca); made in house. The settings on record: read-out: Inhibition of RAS-RAF Binding (in-vitro) KRAS (G12D) IC50. In a few lines:
as §1

Assay [3] has as its target T2, KRAS G12D. Briefly: Degradation of KRas G12D in AsPC-1 cells, Western blot. The settings on record: for KRAS G12D degradation (Western blot), result in words: AsPC-1 cells, FIGS. 1-5; for Dmax: ASPC1; for Dmax / DC50: AsPc-1 cell line after 24 h treatment. Details: endogenous in cells; host or cells: AsPC-1 (ATCC CRL-1682). Format: cell-based. As to the method:
This Example illustrates that the compounds presented herein degrade KRAS G12D.
AsPC-1 cells (ATCC CRL-1682) expressing G12D were grown in RPMI-1640 medium supplemented with 10% fetal bovine serum, and Penicillin/Streptomycin. Cell were plated in 6-well tissue culture plates at a density of 1 million cells/well and allowed to attach for overnight. Diluted compounds were then added in a final concentration of 0.2% DMSO. After 24 hour treatment, the medium was removed, and the plate was washed three times with ice-cold PBS. 50ul of the RIPA cell lysis buffer (ThermoFisher 89901) supplemented with protease inhibitor (Roche 4693116001) and Phosphatase Cocktail A and B inhibitor (Bimake B15002; Bimake Houston TX) was added to each well, the adherent cells were scratched off, and transferred into pre-cold centrifuge tubes. After vigorous vortex, the tubes were incubated on ice for 30 minutes, centrifuged 14,000 rpm for 10 min at 4° C., and the supernatant were transferred into fresh tubes kept on ice. The protein concentration of the supernatant was determined with bicinchoninic acid method (BCA) (ThermoFisher 23227). Samples were prepared to the final concentration of 30ug in 20ul using NuPAGE LDS Sample Buffer (Invitrogen NP0007), NuPAGE Sample Reducing Agent (Invitrogen NP0009), and RIPA cell lysis buffer, and boiled at 95° C. for 15 minutes in water bath.
The levels of KRAS protein and phosphorylated ERK1/2 were determined by Western blotting. 20 μL of protein sample mixture was loaded into each well of 1.5 mm 4-12% Bis-Tris gel (Invitrogen NP0335), and run at 80V in stacking gel and 120 V in separating gel for about 2 h in MOPS running buffer (Invitrogen NP0001). The gel was transferred to the membrane (20V, 7 min) with Invitrogen iBlot2, and blocked with Li-Cor blocking buffer (LI-COR 927-60001; Li-Cor Biotechnology, Lincoln NE) for at least 1 h at room temperature. Primary antibodies diluted in the blocking buffer were added and incubated at 4° C. overnight. As the primary antibodies, KRAS (Proteintech 12063-1-AP), G12D Mutant Specific KRAS (Cell Signaling Technology 14429S), ERKI1/2 (Cell Signaling Technology 4695S), Phospho-ERKI1/2 (Cell Signaling Technology 4370S), and GAPDH (Millipore MAB374) were used. The membrane was washed 4 times with TBST (0.10% Tween20®; ThermoFisher 28360) for 5 minutes at room temperature, then incubated with Li-Cor anti-rabbit-800 (LI-COR 926-68070) and anti-mouse-680 (LI-COR-926-32211) diluted in Li-Cor blocking buffer with the ratio of 1:15,000 to visualize the primary antibodies for 1 hour at room temperature. Then membrane was washed 4 times with TBST (0.1% Tween20) 5 minutes. The signal intensities of bands were quantified by Li-Cor Odyssey CLX.
The KRas and phosphor-ERK1/2 signals were normalized to the GAPDH signal for each lane and percent of DMSO values were calculated to determine the degradation of KRas and the inhibition of ERK1/2 phosphorylation upon the compound treatment.
(In western blotting, separated proteins are transferred to a membrane and probed.)

Assay [4] deals with T3, KRAS 4B G12C protein (Homo sapiens, UniProt P01116, G12C).
T3 construct: made in house; host or cells: E. coli BL21
As to the kind of experiment: In vitro covalent adduct formation (CAF) assay, LC-MS. Format: binding. The settings on record: 5 μM KRAS 4B G12C, 10 μM compound, 22° C. The procedure: This Example provides a protocol for assessing covalent adduct formation (CAF) between the compounds provided herein and KRAS.
In vitro covalent adduct formation assay: Covalent adduct formation (CAF) reactions between Cys12 of the KRAS 4B G12C protein and embodiments of the application were measured in vitro using liquid chromatography-mass spectrometry (LC-MS).
Recombinant Human KRAS 4B protein containing the G12C mutation was used in compound screening experiments. This protein contained 188 amino acids in total, including an N-terminal 6-Histidine tag, followed by a Tobacco Etch Virus (TEV) tag, followed by residues 1-169 of the native KRAS 4B sequence. The exact mass of the protein was 21,310 Da as determined by mass spectrometry. […]
The recombinant protein was expressed in E. coli BL21 cells and purified using affinity chromatography via a Ni-NTA column. […] The intact mass of the protein samples was measured by LC-MS using a QExactive+mass spectrometer (Thermo Scientific). An amount of 500 ng total protein was injected onto a C8 reverse phase column, eluted with a seven-minute gradient of 30%-90% acetonitrile/0.10% formic acid, and analyzed for intact mass by the mass spectrometer. Adducts identified were confirmed to be within 1 Dalton of the expected mass, and the relative ratios of free:adduct protein were used to quantify the percentage of protein bound by the compound. […]

The mark [5] stands for this setting: Table 2, average of multiple runs of each compound.

One may read the IC50 as the concentration needed to halve the response being measured. Take `Cc1ncsc1-c1ccc([C@H](C)NC(=O)[C@@H]2C[C@@H](O)CN2C(=O)[C@@H](NC(=O)CCCCN2CCC[C@H]2COc2nc(N3CC4CCC(C3)N4)c3cc(Cl)c(-c4ccc(F)c5sc(N)nc45)c(F)c3n2)C(C)(C)C)cc1` [Example 7, (2S,4R)-1-[(2S)-2-[5-[(2S)-2-[[7-(2-amino-7-fluoro-1,3-benzothiazol-4-yl)-6-chloro-4-(3,8-diazabicyclo[3.2.1]octan-3-yl)-8-fluoro-quinazolin-2-yl]oxymethyl]pyrrolidin-1-yl]pentanoylamino]-3,3-dimethyl-butanoyl]-4-hydroxy-N-[(1S)-1-[4-(4-methylthiazol-5-yl)phenyl]ethyl]pyrrolidine-2-carboxamide]: the IC50 in assay [1] (Table 1) worked out at 448 nM; in assay [1] (setting [5]), 448 nM; in assay [2] (Table 1), 12 nM; in assay [2] (setting [5]), 12.4 nM. In addition, the “KRAS G12D degradation (Western blot), result in words” value (shortened to “KRAS G12D degradation (Western blot)”) in assay [3] is “Favorable results”.

Consider `C=CC(=O)N1CCN(c2nc(OCCN3CCC(COc4cc([C@H](C(=O)N5C[C@H](O)C[C@H]5C(=O)N[C@@H](C)c5ccc(-c6c(F)cccc6F)cc5)C(C)C)on4)CC3)nc3c(F)c(-c4nc(N)cc(C)c4C(F)(F)F)c(Cl)cc23)[C@@H](C)C1` (atropisomer, axis not shown) [Example 200, (2S,4R)-1-((R)-2-(3-((1-(2-((4-((S)-4-acryloyl-2-methylpiperazin-1-yl)-7-((R)-6-amino-4-methyl-3-(trifluoromethyl)pyridin-2-yl)-6-chloro-8-fluoroquinazolin-2-yl)oxy)ethyl)piperidin-4-yl)methoxy)isoxazol-5-yl)-3-methylbutanoyl)-N—((S)-1-(2′,6′-difluoro-[1,1′-biphenyl]-4-yl)ethyl)-4-hydroxypyrrolidine-2-carboxamide], for which, in assay [4], the “% CAF at 5 min” value was 97%.

By Dmax is commonly meant the largest share of the target that was removed. A lower Dmax goes with a partial loss of target. Usually DC50 stands for the concentration giving 50% degradation. As for `Cc1ncsc1-c1ccc([C@H](CO)NC(=O)[C@@H]2C[C@@H](O)CN2C(=O)[C@@H](NC(=O)CCOCCCN2CCC[C@H]2COc2nc(N3CC4CCC(C3)N4)c3cc(Cl)c(-c4ccc(F)c5sc(N)c(C#N)c45)c(F)c3n2)C(C)(C)C)cc1` [Example 9, (2S,4R)-1-[(2S)-2-[3-[3-[(2S)-2-[[7-(2-amino-3-cyano-7-fluoro-benzothiophen-4-yl)-6-chloro-4-(3,8-diazabicyclo[3.2.1]octan-3-yl)-8-fluoro-quinazolin-2-yl]oxymethyl]pyrrolidin-1-yl]propoxy]propanoylamino]-3,3-dimethyl-butanoyl]-4-hydroxy-N-[(1R)-2-hydroxy-1-[4-(4-methylthiazol-5-yl)phenyl]ethyl]pyrrolidine-2-carboxamide], the 50% inhibitory concentration (IC50) in assay [1] (Table 1) was 49.5 nM; in assay [1] (setting [5]), 49.5 nM; in assay [2] (Table 1), 13.8 nM; in assay [2] (setting [5]) it was 13.8 nM. Also, the Dmax in assay [3] came out at 95%. Further, the “KRAS G12D degradation (Western blot)” value in assay [3] is on record as “Favorable results”. For the same compound, it took 183 nM to reach half-maximal degradation in assay [3] (DC50).

As for `Cc1ncsc1-c1ccc([C@H](C)NC(=O)[C@@H]2C[C@@H](O)CN2C(=O)[C@@H](NC(=O)CCOCCCN2CCC[C@H]2COc2nc(N3CC4CCC(C3)N4)c3cc(Cl)c(-c4ccc(F)c5sc(N)nc45)c(F)c3n2)C(C)(C)C)cc1` [Example 4, (2S,4R)-1-[(2S)-2-[3-[3-[(2S)-2-[[7-(2-amino-7-fluoro-1,3-benzothiazol-4-yl)-6-chloro-4-(3,8-diazabicyclo[3.2.1]octan-3-yl)-8-fluoro-quinazolin-2-yl]oxymethyl]pyrrolidin-1-yl]propoxy]propanoylamino]-3,3-dimethylbutanoyl]-4-hydroxy-N-[(1S)-1-[4-(4-methylthiazol-5-yl)phenyl]ethyl]pyrrolidine-2-carboxamide], the IC50 in assay [1] (Table 1) was determined as 134 nM; in assay [1] (setting [5]), 216 nM; in assay [2] (Table 1) it was 13 nM; in assay [2] (setting [5]), 15.1 nM. Further, the “KRAS G12D degradation (Western blot)” value in assay [3] is “successful degradation”.

Turning to `Cc1ncsc1-c1ccc([C@H](C)NC(=O)[C@@H]2C[C@@H](O)CN2C(=O)[C@@H](NC(=O)CCOCCCN2CCC[C@H]2COc2nc(N3CC4CCC(C3)N4)c3cnc(-c4cc(O)cc5cccc(F)c45)c(F)c3n2)C(C)(C)C)cc1` [Example 6, (2S,4R)-1-[(2S)-2-[3-[3-[(2S)-2-[[4-(3,8-diazabicyclo[3.2.1]octan-3-yl)-8-fluoro-7-(8-fluoro-3-hydroxy-1-naphthyl)pyrido[4,3-d]pyrimidin-2-yl]oxymethyl]pyrrolidin-1-yl]propoxy]propanoylamino]-3,3-dimethyl-butanoyl]-4-hydroxy-N-[(1S)-1-[4-(4-methylthiazol-5-yl)phenyl]ethyl]pyrrolidine-2-carboxamide], the IC50 came to 126 nM in assay [1] (Table 1), 158 nM in assay [1] (setting [5]), 9.5 nM in assay [2] (Table 1) and 8.21 nM in assay [2] (setting [5]). In addition, in assay [3], the Dmax amounted to 95%. Also, in assay [3], the “KRAS G12D degradation (Western blot)” value is “Favorable results”. This compound gave a DC50 in assay [3] of 255 nM.
